Target: T1, recombinant human LTA4 hydrolase (rhLTA4H) (Homo sapiens, UniProt P09960)
T1 construct: made in house; host or cells: Spodoptera frugiperda (Sf-9) cells, baculovirus (pFastBac1)
T1 sequence (P09960 1-611): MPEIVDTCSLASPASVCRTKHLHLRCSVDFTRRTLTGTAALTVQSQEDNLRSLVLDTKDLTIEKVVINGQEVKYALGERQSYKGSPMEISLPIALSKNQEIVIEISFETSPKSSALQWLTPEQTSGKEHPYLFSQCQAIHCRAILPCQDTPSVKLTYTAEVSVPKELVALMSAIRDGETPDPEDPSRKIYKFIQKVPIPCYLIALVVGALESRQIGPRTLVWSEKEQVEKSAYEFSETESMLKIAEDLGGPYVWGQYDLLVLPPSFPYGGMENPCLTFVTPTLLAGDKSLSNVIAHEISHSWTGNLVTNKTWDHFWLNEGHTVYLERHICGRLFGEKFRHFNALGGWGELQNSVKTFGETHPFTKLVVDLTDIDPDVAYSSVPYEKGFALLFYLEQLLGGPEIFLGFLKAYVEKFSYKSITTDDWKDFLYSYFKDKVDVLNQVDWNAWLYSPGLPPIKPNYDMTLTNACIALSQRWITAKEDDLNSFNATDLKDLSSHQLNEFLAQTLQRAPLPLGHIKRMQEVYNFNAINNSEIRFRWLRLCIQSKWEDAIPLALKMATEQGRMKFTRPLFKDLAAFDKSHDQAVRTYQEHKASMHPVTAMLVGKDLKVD
Assay: Recombinant Human LTA4 Hydrolase Assay for LTA4 Hydrolase Inhibitor Activity
Format: biochemical
Details: average of results obtained; LTB4 quantified by enzyme-linked immunoassay
Summary of the method: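 LTB4 formation, quantified by EIA after 10 min at rt, was the read-out once 9 ng LTA4 (free acid) was added to recombinant human enzyme (36 ng, Sf-9 expressed) that had sat 10 min with compound. Buffer: 0.1 M potassium phosphate pH 7.4 with fatty-acid-free BSA; IC50 by 4-parameter fit.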

First: CS(=O)(=O)N1CC2CCC(C1)N2CCc1ccc(Oc2nc3c(Cl)cccc3s2)cc1 [Example 281, meso-4-Chloro-2-{4-[2-(3-methanesulfonyl-3,8-diaza-bicyclo[3.2.1]oct-8-yl)-ethyl]-phenoxy}-benzothiazole]
Second: CS(=O)(=O)N1[C@@H]2CC[C@H]1C[C@H](NCCc1ccc(Oc3nc4c(Cl)cccc4s3)cc1)C2 [Example 237, meso-exo-{2-[4-(4-Chloro-benzothiazol-2-yloxy)-phenyl]-ethyl}-(8-methanesulfonyl-8-aza-bicyclo[3.2.1]oct-3-yl)-amine]
The Ki of the first is 8.4-fold higher: 2040 nM for the first, 244 nM for the second.

Going from NC(=O)N[C@@H]1C[C@H]2CC[C@@H](C1)N2CCc1ccc(Oc2nc3cc(Cl)ccc3s2)cc1 [Example 202, meso-exo-(8-{2-[4-(5-Chloro-benzothiazol-2-yloxy)-phenyl]-ethyl}-8-aza-bicyclo[3.2.1]oct-3-yl)-urea] to NC(=O)N[C@@H]1C[C@H]2CC[C@@H](C1)N2CCOc1ccc(Oc2nc3ccc(Cl)cc3s2)cc1 [Example 234, meso-exo-(8-{2-[4-(6-Chloro-benzothiazol-2-yloxy)-phenoxy]-ethyl}-8-aza-bicyclo[3.2.1]oct-3-yl)-urea], the Ki falls from 127 nM to 72 nM (1.8-fold).

First: CC(=O)N[C@H]1C[C@H]2CC[C@@H](C1)N2Cc1ccc(Cc2nc3ccccc3o2)cc1 [Example 6, meso-endo-N-[8-(4-Benzooxazol-2-ylmethyl-benzyl)-8-aza-bicyclo[3.2.1]oct-3-yl]-acetamide]
Second: NC(=O)N[C@H]1C[C@H]2CC[C@@H](C1)N2Cc1ccc(Cc2nc3ccccc3s2)cc1 [Example 36, meso-endo-[8-(4-Benzothiazol-2-ylmethyl-benzyl)-8-aza-bicyclo[3.2.1]oct-3-yl]-urea]
The Ki of the first is 1.9-fold lower: 50 nM for the first, 94 nM for the second. The first binds more tightly here.

First: CS(=O)(=O)N1[C@@H]2CC[C@H]1C[C@@H](NCCc1ccc(Oc3nc4c(F)cccc4s3)cc1)C2 [Example 279, meso-endo-{2-[4-(4-Fluoro-benzothiazol-2-yloxy)-phenyl]-ethyl}-(8-methanesulfonyl-8-aza-bicyclo[3.2.1]oct-3-yl)-amine]
Second: CS(=O)(=O)N[C@H]1C[C@H]2CC[C@@H](C1)N2Cc1ccc(Oc2nc3c(Cl)cccc3s2)cc1 [Example 167, meso-endo-N-{8-[4-(4-Chloro-benzothiazol-2-yloxy)-benzyl]-8-aza-bicyclo[3.2.1]oct-3-yl}-methanesulfonamide]
The Ki of the first is 1.6-fold lower: 21 nM for the first, 33 nM for the second. The first binds more tightly here.

Going from CC(=O)N1C[C@H]2C[C@@H]1CN2Cc1ccc(Oc2nc3cc(F)ccc3s2)cc1 [Example 183, (R,R)-1-{5-[4-(5-Fluoro-benzothiazol-2-yloxy)-benzyl]-2,5-diaza-bicyclo[2.2.1]hept-2-yl}-ethanone] to CC(=O)N1C[C@@H]2C[C@H]1CN2Cc1ccc(Oc2nc3cc(F)ccc3s2)cc1 [Example 170, (S,S)-1-{5-[4-(5-Fluoro-benzothiazol-2-yloxy)-benzyl]-2,5-diaza-bicyclo[2.2.1]hept-2-yl}-ethanone], the Ki falls from 383 nM to 90 nM (4.3-fold). The second binds more tightly here.

Compared with O=C(c1ccsc1)N1CC2CN(Cc3ccc(Oc4nc5ccccc5s4)cc3)CC2C1 (centres unmarked) [Example 109, {5-[4-(Benzothiazol-2-yloxy)-benzyl]-hexahydro-pyrrolo[3,4-c]pyrrol-2-yl}-thiophen-3-yl-methanone], NC(=O)N1CC2CN(Cc3ccc(Oc4nc5ccccc5s4)cc3)CC2C1 (centres unmarked) [Example 139, 5-[4-(Benzothiazol-2-yloxy)-benzyl]-hexahydro-pyrrolo[3,4-c]pyrrole-2-carboxylic acid amide] is 45-fold lower in Ki: 135 nM for the first, 3 nM for the second.

NC(=O)N1C[C@@H]2C[C@H]1CN2CCOc1ccc(Oc2nc3ccccc3s2)cc1 [Example 40, (S,S)-5-{2-[4-(Benzothiazol-2-yloxy)-phenoxy]-ethyl}-2,5-diaza-bicyclo[2.2.1]heptane-2-carboxylic acid amide] and NC(=O)N1CC2CN(CCOc3ccc(Oc4nc5ccccc5s4)cc3)CC2C1 (centres unmarked) [Example 134, 5-{2-[4-(Benzothiazol-2-yloxy)-phenoxy]-ethyl}-hexahydro-pyrrolo[3,4-c]pyrrole-2-carboxylic acid amide] are within 1.5-fold of each other in Ki: 38 nM for the first, 32 nM for the second.

Compared with O=C(CF)N1CC2CN(Cc3ccc(Oc4nc5ccccc5s4)cc3)CC2C1 (centres unmarked) [Example 112, 1-{5-[4-(Benzothiazol-2-yloxy)-benzyl]-hexahydro-pyrrolo[3,4-c]pyrrol-2-yl}-2-fluoro-ethanone], O=C(CO)N1CC2CN(Cc3ccc(Oc4nc5ccccc5s4)cc3)CC2C1 (centres unmarked) [Example 118, 1-{5-[4-(Benzothiazol-2-yloxy)-benzyl]-hexahydro-pyrrolo[3,4-c]pyrrol-2-yl}-2-hydroxy-ethanone] is 12-fold higher in Ki: 2 nM for the first, 23 nM for the second.

Compared with CS(=O)(=O)N1CCC2CN(Cc3ccc(Oc4nc5ccccc5s4)cc3)CC2C1 (centres unmarked) [Example 130, 2-[4-(5-Methanesulfonyl-octahydro-pyrrolo[3,4-c]pyridin-2-ylmethyl)-phenoxy]-benzothiazole], Cn1cnc(S(=O)(=O)N2CC3CN(Cc4ccc(Oc5nc6ccccc6s5)cc4)CC3C2)c1 (centres unmarked) [Example 122, 2-{4-[5-(1-Methyl-1H-imidazole-4-sulfonyl)-hexahydro-pyrrolo[3,4-c]pyrrol-2-ylmethyl]-phenoxy}-benzothiazole] is 6.6-fold higher in Ki: 21 nM for the first, 139 nM for the second. The first binds more tightly here.

Going from COC(=O)CN1CC2CN(Cc3ccc(Oc4nc5ccccc5s4)cc3)CC2C1 (centres unmarked) [Example 157, {5-[4-(Benzothiazol-2-yloxy)-benzyl]-hexahydro-pyrrolo[3,4-c]pyrrol-2-yl}-acetic acid methyl ester] to NCC(=O)N1CC2CN(Cc3ccc(Oc4nc5ccccc5s4)cc3)CC2C1 (centres unmarked) [Example 97, 2-Amino-1-{5-[4-(benzothiazol-2-yloxy)-benzyl]-hexahydro-pyrrolo[3,4-c]pyrrol-2-yl}-ethanone], the Ki falls from 57 nM to 33 nM (1.7-fold).

Going from CC(=O)N[C@H]1C[C@H]2CC[C@@H](C1)N2CCOc1ccc(Oc2nc3cc(F)ccc3s2)cc1 [Example 216, meso-endo-N-(8-{2-[4-(5-Fluoro-benzothiazol-2-yloxy)-phenoxy]-ethyl}-8-aza-bicyclo[3.2.1]oct-3-yl)-acetamide] to CC(=O)N1[C@@H]2CC[C@H]1C[C@@H](NCc1ccc(Oc3nc4ccc(F)cc4s3)cc1)C2 [Example 175, meso-endo-1-{3-[4-(6-Fluoro-benzothiazol-2-yloxy)-benzylamino]-8-aza-bicyclo[3.2.1]oct-8-yl}-ethanone], the Ki falls from 100 nM to 53 nM (1.9-fold).

Going from NC(=O)NC1[C@H]2CN(Cc3ccc(Oc4nc5ccccc5s4)cc3)C[C@@H]12 (stereo partly drawn) [Example 140, (R,S)-{3-[4-(Benzothiazol-2-yloxy)-benzyl]-3-aza-bicyclo[3.1.0]hex-6-yl}-urea] to NC(=O)N1C[C@H]2CCN(Cc3ccc(Oc4nc5ccccc5s4)cc3)[C@H]2C1 [Example 138, (R,R)-1-[4-(Benzothiazol-2-yloxy)-benzyl]-hexahydro-pyrrolo[3,4-b]pyrrole-5-carboxylic acid amide], the Ki rises from 19 nM to 29 nM (1.5-fold). The first binds more tightly here.

Compared with O=C(C1CNC1)N1CC2CN(Cc3ccc(Oc4nc5ccccc5s4)cc3)CC2C1 (centres unmarked) [Example 99, Azetidin-3-yl-{5-[4-(benzothiazol-2-yloxy)-benzyl]-hexahydro-pyrrolo[3,4-c]pyrrol-2-yl}-methanone], Cc1noc(C)c1NC(=O)N1CC2CN(Cc3ccc(Oc4nc5ccccc5s4)cc3)CC2C1 (centres unmarked) [Example 133, 5-[4-(Benzothiazol-2-yloxy)-benzyl]-hexahydro-pyrrolo[3,4-c]pyrrole-2-carboxylic acid (3,5-dimethyl-isoxazol-4-yl)-amide] is 11-fold lower in Ki: 221 nM for the first, 20 nM for the second. The second binds more tightly here.

Going from CC(C)(O)C(=O)N1C[C@@H]2C[C@H]1CN2CCc1ccc(Oc2nc3ccccc3s2)cc1 [Example 17, (S,S)-1-(5-{2-[4-(Benzothiazol-2-yloxy)-phenyl]-ethyl}-2,5-diaza-bicyclo[2.2.1]hept-2-yl)-2-hydroxy-2-methyl-propan-1-one] to NC(=O)N1C[C@H]2C[C@@H]1CN2CCc1ccc(Oc2nc3c(Cl)cccc3s2)cc1 [Example 252, (R,R)-5-{2-[4-(4-Chloro-benzothiazol-2-yloxy)-phenyl]-ethyl}-2,5-diaza-bicyclo[2.2.1]heptane-2-carboxylic acid amide], the Ki rises from 11 nM to 108 nM (9.8-fold). The first binds more tightly here.

Going from Cc1ccc2nc(Oc3ccc(CCN4C[C@H]5C[C@@H]4CN5S(C)(=O)=O)cc3)sc2c1 [Example 193, (R,R)-2-{4-[2-(5-Methanesulfonyl-2,5-diaza-bicyclo[2.2.1]hept-2-yl)-ethyl]-phenoxy}-6-methyl-benzothiazole] to NC(=O)N1C[C@@H]2C[C@H]1CN2Cc1ccc(Oc2nc3ccccc3s2)cc1F [Example 80, (S,S)-5-[4-(Benzothiazol-2-yloxy)-2-fluoro-benzyl]-2,5-diaza-bicyclo[2.2.1]heptane-2-carboxylic acid amide], the Ki falls from 612 nM to 60 nM (10-fold). The second binds more tightly here.

Going from O=S(=O)(c1cccnc1)N1CC2CN(Cc3ccc(Oc4nc5ccccc5s4)cc3)CC2C1 (centres unmarked) [Example 120, 2-{4-[5-(Pyridine-3-sulfonyl)-hexahydro-pyrrolo[3,4-c]pyrrol-2-ylmethyl]-phenoxy}-benzothiazole] to NCC(=O)N1CC2CCN(Cc3ccc(Oc4nc5ccccc5s4)cc3)C2C1 (centres unmarked) [Example 96, 2-Amino-1-{1-[4-(benzothiazol-2-yloxy)-benzyl]-hexahydro-pyrrolo[3,4-b]pyrrol-5-yl}-ethanone], the Ki falls from 205 nM to 26 nM (7.9-fold).

Reference: patent US8344008B2 (Janssen Pharmaceutica NV, priority 2007, dated 2013)
